Where two headings read alike, the source gives them in different places. Each block holds one compound with its values, some of them ahead of it.
Experiments:
rats = test: Conditioned avoidance, discrete trial (lever press substituted for shelf-jump), Avoidance Block; assay type: in vivo, rat; settings: for ED50: Rattus norvegicus, po, read-out: Conditioned Avoidance Discrete Trial AB50 (Avoidance Block); for Conditioned Avoidance Discrete Trial AB50 (Avoidance Block): p.o.
[1] = biological target: T1, 5-HT1A serotonin receptor (Rattus norvegicus, UniProt P19327); test: Inhibition of [3H]8-OH DPAT binding
T1 construct: 44: 1685-1696, 1985; from tissue
T1 sequence (P19327 1-422): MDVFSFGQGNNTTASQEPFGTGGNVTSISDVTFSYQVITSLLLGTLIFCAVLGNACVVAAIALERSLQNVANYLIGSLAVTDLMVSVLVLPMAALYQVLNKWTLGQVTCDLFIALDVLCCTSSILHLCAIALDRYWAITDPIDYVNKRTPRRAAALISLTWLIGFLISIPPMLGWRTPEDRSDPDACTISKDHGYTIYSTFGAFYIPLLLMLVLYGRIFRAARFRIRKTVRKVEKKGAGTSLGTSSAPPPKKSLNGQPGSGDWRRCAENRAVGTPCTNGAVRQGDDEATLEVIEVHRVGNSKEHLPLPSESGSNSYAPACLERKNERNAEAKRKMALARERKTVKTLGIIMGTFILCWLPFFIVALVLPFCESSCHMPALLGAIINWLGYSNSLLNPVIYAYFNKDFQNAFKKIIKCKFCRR

[2] = test system: male CD rats (Charles River); test: Conditioned avoidance, shelf-jump response; assay type: in vivo, rat; settings: 40 mg/kg i.p., single dose
Procedure: The rat can avoid the electric shock by jumping to an exposed shelf (shelf-jump response). A response during the initial warning tone is considered an avoidance response, while a response during shock delivery is considered as escape response. […] The compounds of this invention were tested at a single dose (40 mg./kg. i.p.) in this procedure and were rated relative to their inhibition of conditioned avoidance responding.

[3] = test system: CF-1 mice (Charles River); test: Antagonism of apomorphine-induced stereotyped behavior and climbing; assay type: in vivo, mouse; settings: for ED50: Mus musculus, po; for ED50 / Apomorphine Antagonism ED50, stereotypy / Apomorphine Antagonism ED50, climbing: apomorphine 1 mg/kg s.c.; for Apomorphine Antagonism ED50, stereotypy / Apomorphine Antagonism ED50, climbing: p.o.; for ratio of the ED50 for stereotyped behavior to the ED50 for climbing: apomorphine-induced, standard antipsychotic drugs
Procedure: Readings are repeated every five minutes during a thirty minute test session. […] The ratio of the ED50 for stereotyped behavior to the ED50 for climbing is calculated.

D-2 dopamine receptor = biological target: T2, D-2 dopamine receptor (Rattus norvegicus, UniProt P61169); test: [3H]spiroperidol binding inhibition, homogenized limbic brain tissue
T2 construct: homogenized limbic brain tissue is incubated with; from tissue; host or cells: homogenized limbic brain tissue
T2 sequence (P61169 whole entry): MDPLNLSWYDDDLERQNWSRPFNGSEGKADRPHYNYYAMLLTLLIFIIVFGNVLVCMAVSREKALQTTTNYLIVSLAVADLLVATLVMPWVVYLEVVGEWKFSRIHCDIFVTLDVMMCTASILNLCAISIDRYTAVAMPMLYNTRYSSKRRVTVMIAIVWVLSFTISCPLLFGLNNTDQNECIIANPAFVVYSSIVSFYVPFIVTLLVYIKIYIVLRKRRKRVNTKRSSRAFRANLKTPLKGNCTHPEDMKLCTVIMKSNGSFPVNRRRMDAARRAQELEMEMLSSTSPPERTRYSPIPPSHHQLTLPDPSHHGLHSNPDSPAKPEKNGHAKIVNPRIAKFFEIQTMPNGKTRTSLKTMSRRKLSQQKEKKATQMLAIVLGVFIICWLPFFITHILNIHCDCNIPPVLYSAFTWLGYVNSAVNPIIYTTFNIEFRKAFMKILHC

[4] = read-out: Apomorphine Antagonism ED50, climbing

Compound: O=C1C2C(C(=O)N1CCCCN1CCN(c3ncccn3)CC1)C1C3CC4C(C32)C41 (stereo not drawn) [Example 1, Endo-2-[4-[4-(2-pyrimidinyl)-1-piperazinyl]butyl]octahydro-4,5,7-metheno-1H-pentaleno[1,2-c]pyrrole-1,3(2H)-dione]
ED50 (rats): 55.7 mg/kg
Ki [1]: 12.8 nM
Conditioned Avoidance Shelf-Jump (inhibition of conditioned avoidance responding) [2]: ~ 80%
ED50 [3, 4]: 17 mg/kg
Apomorphine Antagonism ED50, stereotypy [3]: inactive
[3H] Spiroperidol Binding Inhibition, % at 1 μM (D-2 dopamine receptor; 1 µM): 76%

Compound: CN(C)CCCN1c2ccccc2Sc2ccc(Cl)cc21 [chlorpromazine, reference compound]
ratio of the ED50 for stereotyped behavior to the ED50 for climbing [3]: 1.51

Compound: O=C1CC2(CCCC2)CC(=O)N1CCCCN1CCN(c2ncccn2)CC1 [buspirone, reference compound]
affinity for 5-HT1A serotonin receptor (in words) ([1]; displacement of [3H]8-OH DPAT): potent affinity

Compound: CSc1ccc2c(c1)N(CCC1CCCCN1C)c1ccccc1S2 (stereo not shown) [thioridazine, reference compound]
ratio of the ED50 for stereotyped behavior to the ED50 for climbing [3]: 1.83

Compound: Exo-2-[4-[4-(6-chloro-2-pyrazinyl)-1-piperazinyl]butyl]octahydro-4,57-metheno-1H-pentaleno[1,2-c]pyrrole-1,3-(2H)-dione [Example 4]
Conditioned Avoidance Discrete Trial AB50 (Avoidance Block) (rats): 56.16 mg/kg
Inhibition of [3H] 8-OH DPAT Binding, % at 1 μM ([1]; 1 μM): 76%
Conditioned Avoidance Shelf-Jump (inhibition of conditioned avoidance responding) [2]: > 20%
Apomorphine Antagonism ED50, climbing [3]: inactive
Apomorphine Antagonism ED50, stereotypy [3]: inactive
[3H] Spiroperidol Binding Inhibition, % at 1 μM (D-2 dopamine receptor): 54%

Compound: O=C(CCCN1CCC(O)(c2ccc(Cl)cc2)CC1)c1ccc(F)cc1 [haloperidol, reference compound]
ratio of the ED50 for stereotyped behavior to the ED50 for climbing [3]: 1.00

More lines, main results first:

Ki [1]: 40 nM
[3H] Spiroperidol Binding Inhibition, % at 1 μM (D-2 dopamine receptor; 1 µM): 0%
Compound: O=C1C2C(C(=O)N1CCCCN1CCN(c3ncccn3)CC1)C1C3CC4C(C32)C41 (stereo not drawn) [Example 2, Exo-2-[4-[4-(2-pyrimidinyl)-1-piperazinyl]butyl]octahydro-4,5,7-metheno-1H-pentaleno[1,2-c]pyrrole-1,3(2H)-dione]
Conditioned Avoidance Discrete Trial AB50 (Avoidance Block) (rats): active
Conditioned Avoidance Shelf-Jump (inhibition of conditioned avoidance responding) [2]: > 20%
Apomorphine Antagonism ED50, climbing [3]: 15.61 mg/kg
Apomorphine Antagonism ED50, stereotypy [3]: inactive

Ki [1]: 41.9 nM
inhibition at 1 µM (D-2 dopamine receptor): 44%
Compound: O=C1C2C(C(=O)N1CCCCN1CCN(c3cncc(Cl)n3)CC1)C1C3CC4C(C32)C41 (stereo not drawn) [Example 3, Endo-2-[4-[4-(6-chloro-2-pyrazinyl)-1-piperazinyl]butyl]octahydro-4,5,7-metheno-1H-pentaleno[1,2-c]pyrrole-1,3-(2H)-dione]
ED50 (rats): 46.8 mg/kg
Conditioned Avoidance Shelf-Jump (inhibition of conditioned avoidance responding) [2]: > 20%
ED50 [3, 4]: 19 mg/kg
Apomorphine Antagonism ED50, stereotypy [3]: inactive

Ki [1]: 94 nM
inhibition at 1 µM (D-2 dopamine receptor): 25%
Compound: O=C1C2C(C(=O)N1CCCCN1CCN(c3cnccn3)CC1)C1C3CC4C(C32)C41 (stereo not drawn) [Example 5, Endo-2-[4-[4-(2-pyrazinyl)-1-piperazinyl]butyl]octahydro-4,5,7-metheno-1H-pentaleno[1,2-c]pyrrole-1,3-(2H)-dione]
Conditioned Avoidance Discrete Trial AB50 (Avoidance Block) (rats): inactive
Conditioned Avoidance Shelf-Jump (inhibition of conditioned avoidance responding) [2]: ~ 80%
Apomorphine Antagonism ED50, climbing [3]: inactive
Apomorphine Antagonism ED50, stereotypy [3]: inactive

Ki [1]: 16 nM
inhibition at 1 µM (D-2 dopamine receptor): 51%
Compound: O=C1C2C3CC4C2C4C3C(=O)N1CCCCN1CCN(c2ncccn2)CC1 [Example 7, 2-[4-[4-(2-Pyrimidinyl)-1-piperazinyl]butyl]hexahydro-4,6,7-metheno-1H-2-pyridine-1,3-(2H)-dione]
Conditioned Avoidance Discrete Trial AB50 (Avoidance Block) (rats): weak
Conditioned Avoidance Shelf-Jump (inhibition of conditioned avoidance responding) [2]: ~ 80%
Apomorphine Antagonism ED50, climbing [3]: inactive
Apomorphine Antagonism ED50, stereotypy [3]: inactive

Ki [1]: 51 nM
inhibition at 1 µM (D-2 dopamine receptor): 29%
Compound: O=C1C2C3CC4C2C4C3C(=O)N1CCCCN1CCN(c2cncc(Cl)n2)CC1 [Example 6, 2-[4-[4-(6-Chloro-2-pyrazinyl)-1-piperazinyl]butyl]hexahydro-4,6,7-metheno-1H-2-pyridine-1,3-(2H)-dione]
Conditioned Avoidance Discrete Trial AB50 (Avoidance Block) (rats): active
Conditioned Avoidance Shelf-Jump (inhibition of conditioned avoidance responding) [2]: ~ 80%
ED50 [3, 4]: 1.74 mg/kg
ED50 ([3]; read-out: Apomorphine Antagonism ED50, stereotypy): 40.5 mg/kg

From US4732983A, “Pyschotropic polycyclic imides” (American Home Products Corporation, priority 1987, dated 1988)
